Data reported in publication PMC3399817 (PLoS ONE, 2012).

Experiments:
Experiment in all cases: KINOMEscan
Format in all cases: binding
HIPK2 = biological target: T1, HIPK2 (Homo sapiens, UniProt Q9H2X6); conditions: for % binding compared to no inhibitor control: HIPK2, 1 uM
T1 construct: purchased Ambit KINOMEscan (DiscoverX)
Outline: (§1)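 Substrate-binding inhibition measured with compound present at 1 μM, single concentration, to pick out affected kinases.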

CDK3 = biological target: T2, CDK3 (Homo sapiens, UniProt Q00526); conditions: CDK3, 1 uM
T2 construct: purchased Ambit KINOMEscan (DiscoverX)
Outline: as §1

MAK = biological target: T3, MAK (Homo sapiens, UniProt P20794); conditions: 1 uM
T3 construct: purchased Ambit KINOMEscan (DiscoverX)
Outline: as §1

SIK = biological target: T4, SIK (Homo sapiens, UniProt P57059); conditions: 1 uM
T4 construct: purchased Ambit KINOMEscan (DiscoverX)
Outline: as §1

ADCK4 = biological target: T5, ADCK4 (Homo sapiens, UniProt Q96D53); conditions: ADCK4, 1 uM
T5 construct: purchased Ambit KINOMEscan (DiscoverX)
Outline: as §1

DDR1 = biological target: T6, DDR1 (Homo sapiens, UniProt Q08345); conditions: DDR1, 1 uM
T6 construct: purchased Ambit KINOMEscan (DiscoverX)
Outline: as §1

AURKC = biological target: T7, AURKC (Homo sapiens, UniProt Q9UQB9); conditions: 1 uM
T7 construct: purchased Ambit KINOMEscan (DiscoverX)
Outline: as §1

CDK7 = biological target: T8, CDK7 (Homo sapiens, UniProt P50613); conditions: CDK7, 1 uM
T8 construct: purchased Ambit KINOMEscan (DiscoverX)
Outline: as §1

CAMK2D = biological target: T9, CAMK2D (Homo sapiens, UniProt Q13557); conditions: 1 uM
T9 construct: purchased Ambit KINOMEscan (DiscoverX)
Outline: as §1

[1] = biological target: T10, JAK2(JH1domain-catalytic) (Homo sapiens, UniProt O60674); conditions: 1 uM
T10 construct: JAK2(JH1domain-catalytic); purchased Ambit KINOMEscan (DiscoverX)
Outline: as §1

YANK3 = biological target: T11, YANK3 (Homo sapiens, UniProt Q86UX6); conditions: YANK3, 1 uM
T11 construct: purchased Ambit KINOMEscan (DiscoverX)
Outline: as §1

p38-gamma = biological target: T12, p38-gamma (Homo sapiens, UniProt P53778); conditions: 1 uM
T12 construct: purchased Ambit KINOMEscan (DiscoverX)
Outline: as §1

CAMKK2 = biological target: T13, CAMKK2 (Homo sapiens, UniProt Q96RR4); conditions: CAMKK2, 1 uM
T13 construct: purchased Ambit KINOMEscan (DiscoverX)
Outline: as §1

MAP3K2 = biological target: T14, MAP3K2 (Homo sapiens, UniProt Q9Y2U5); conditions: MAP3K2, 1 uM
T14 construct: purchased Ambit KINOMEscan (DiscoverX)
Outline: as §1

PIP5K1A = biological target: T15, PIP5K1A (Homo sapiens, UniProt Q99755); conditions: 1 uM
T15 construct: purchased Ambit KINOMEscan (DiscoverX)
Outline: as §1

NDR2 = biological target: T16, NDR2 (Homo sapiens, UniProt Q9Y2H1); conditions: NDR2, 1 uM
T16 construct: purchased Ambit KINOMEscan (DiscoverX)
Outline: as §1

CSK = biological target: T17, CSK (Homo sapiens, UniProt P41240); conditions: 1 uM
T17 construct: purchased Ambit KINOMEscan (DiscoverX)
Outline: as §1

NEK7 = biological target: T18, NEK7 (Homo sapiens, UniProt Q8TDX7); conditions: NEK7, 1 uM
T18 construct: purchased Ambit KINOMEscan (DiscoverX)
Outline: as §1

MAP4K4 = biological target: T19, MAP4K4 (Homo sapiens, UniProt O95819); conditions: MAP4K4, 1 uM
T19 construct: purchased Ambit KINOMEscan (DiscoverX)
Outline: as §1

TNK1 = biological target: T20, TNK1 (Homo sapiens, UniProt Q13470); conditions: TNK1, 1 uM
T20 construct: purchased Ambit KINOMEscan (DiscoverX)
Outline: as §1

BMPR1A = biological target: T21, BMPR1A (Homo sapiens, UniProt P36894); conditions: 1 uM
T21 construct: purchased Ambit KINOMEscan (DiscoverX)
Outline: as §1

WEE1 = biological target: T22, WEE1 (Homo sapiens, UniProt P30291); conditions: WEE1, 1 uM
T22 construct: purchased Ambit KINOMEscan (DiscoverX)
Outline: as §1

MKNK1 = biological target: T23, MKNK1 (Homo sapiens, UniProt Q9BUB5); conditions: MKNK1, 1 uM
T23 construct: purchased Ambit KINOMEscan (DiscoverX)
Outline: as §1

CHEK2 = biological target: T24, CHEK2 (Homo sapiens, UniProt O96017); conditions: CHEK2, 1 uM
T24 construct: purchased Ambit KINOMEscan (DiscoverX)
Outline: as §1

DCAMKL1 = biological target: T25, DCAMKL1 (Homo sapiens, UniProt O15075); conditions: DCAMKL1, 1 uM
T25 construct: purchased Ambit KINOMEscan (DiscoverX)
Outline: as §1

DMPK2 = biological target: T26, DMPK2 (Homo sapiens, UniProt Q6DT37); conditions: DMPK2, 1 uM
T26 construct: purchased Ambit KINOMEscan (DiscoverX)
Outline: as §1

FRK = biological target: T27, FRK (Homo sapiens, UniProt P42685); conditions: 1 uM
T27 construct: purchased Ambit KINOMEscan (DiscoverX)
Outline: as §1

PFTK1 = biological target: T28, PFTK1 (Homo sapiens, UniProt O94921); conditions: PFTK1, 1 uM
T28 construct: purchased Ambit KINOMEscan (DiscoverX)
Outline: as §1

[2] = biological target: T29, RPS6KA5(Kin.Dom.2-C-terminal) (Homo sapiens, UniProt O75582); conditions: 1 uM
T29 construct: RPS6KA5(Kin.Dom.2-C-terminal); purchased Ambit KINOMEscan (DiscoverX)
Outline: as §1

FGFR2 = biological target: T30, FGFR2 (Homo sapiens, UniProt P21802); conditions: FGFR2, 1 uM
T30 construct: purchased Ambit KINOMEscan (DiscoverX)
Outline: as §1

SRMS = biological target: T31, SRMS (Homo sapiens, UniProt Q9H3Y6); conditions: 1 uM
T31 construct: purchased Ambit KINOMEscan (DiscoverX)
Outline: as §1

OSR1 = biological target: T32, OSR1 (Homo sapiens, UniProt O95747); conditions: OSR1, 1 uM
T32 construct: purchased Ambit KINOMEscan (DiscoverX)
Outline: as §1

BRSK2 = biological target: T33, BRSK2 (Homo sapiens, UniProt Q8IWQ3); conditions: BRSK2, 1 uM
T33 construct: purchased Ambit KINOMEscan (DiscoverX)
Outline: as §1

PAK4 = biological target: T34, PAK4 (Homo sapiens, UniProt O96013); conditions: PAK4, 1 uM
T34 construct: purchased Ambit KINOMEscan (DiscoverX)
Outline: as §1

PKAC-alpha = biological target: T35, PKAC-alpha (Homo sapiens, UniProt P17612); conditions: 1 uM
T35 construct: purchased Ambit KINOMEscan (DiscoverX)
Outline: as §1

ERK3 = biological target: T36, ERK3 (Homo sapiens, UniProt Q16659); conditions: ERK3, 1 uM
T36 construct: purchased Ambit KINOMEscan (DiscoverX)
Outline: as §1

BRSK1 = biological target: T37, BRSK1 (Homo sapiens, UniProt Q8TDC3); conditions: BRSK1, 1 uM
T37 construct: purchased Ambit KINOMEscan (DiscoverX)
Outline: as §1

LATS1 = biological target: T38, LATS1 (Homo sapiens, UniProt O95835); conditions: LATS1, 1 uM
T38 construct: purchased Ambit KINOMEscan (DiscoverX)
Outline: as §1

HCK = biological target: T39, HCK (Homo sapiens, UniProt P08631); conditions: 1 uM
T39 construct: purchased Ambit KINOMEscan (DiscoverX)
Outline: as §1

T1 sequence (Q9H2X6 whole entry): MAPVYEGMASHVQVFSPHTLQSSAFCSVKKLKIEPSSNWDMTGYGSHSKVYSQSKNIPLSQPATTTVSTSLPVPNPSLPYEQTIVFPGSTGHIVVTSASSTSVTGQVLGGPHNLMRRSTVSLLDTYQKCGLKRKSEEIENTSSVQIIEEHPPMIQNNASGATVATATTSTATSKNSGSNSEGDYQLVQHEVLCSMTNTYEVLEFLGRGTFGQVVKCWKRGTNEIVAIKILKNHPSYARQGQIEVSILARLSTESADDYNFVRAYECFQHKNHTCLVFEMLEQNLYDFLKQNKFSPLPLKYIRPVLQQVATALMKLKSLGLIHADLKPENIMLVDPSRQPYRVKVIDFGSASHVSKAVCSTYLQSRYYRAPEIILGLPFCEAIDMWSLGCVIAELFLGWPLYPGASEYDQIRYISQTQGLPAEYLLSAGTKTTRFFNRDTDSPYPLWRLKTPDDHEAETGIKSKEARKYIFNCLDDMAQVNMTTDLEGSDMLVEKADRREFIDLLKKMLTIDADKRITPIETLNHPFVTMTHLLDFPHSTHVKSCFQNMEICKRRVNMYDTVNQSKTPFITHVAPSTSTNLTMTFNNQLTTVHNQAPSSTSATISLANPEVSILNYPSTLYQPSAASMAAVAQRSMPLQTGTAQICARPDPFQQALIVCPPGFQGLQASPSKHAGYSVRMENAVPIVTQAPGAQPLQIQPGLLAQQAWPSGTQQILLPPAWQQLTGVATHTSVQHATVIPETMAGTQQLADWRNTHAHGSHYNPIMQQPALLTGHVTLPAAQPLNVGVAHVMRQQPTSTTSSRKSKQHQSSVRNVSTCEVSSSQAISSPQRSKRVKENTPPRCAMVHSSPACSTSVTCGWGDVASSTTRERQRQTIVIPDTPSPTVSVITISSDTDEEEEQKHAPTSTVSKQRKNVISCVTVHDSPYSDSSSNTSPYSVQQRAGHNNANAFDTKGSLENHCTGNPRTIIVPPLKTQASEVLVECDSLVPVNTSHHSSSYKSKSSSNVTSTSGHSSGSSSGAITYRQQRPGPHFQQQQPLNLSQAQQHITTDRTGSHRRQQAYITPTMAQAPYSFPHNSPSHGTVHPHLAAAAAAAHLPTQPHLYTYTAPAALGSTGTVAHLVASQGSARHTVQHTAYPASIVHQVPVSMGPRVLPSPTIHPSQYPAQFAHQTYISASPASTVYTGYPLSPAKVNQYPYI
T7 sequence (Q9UQB9 whole entry): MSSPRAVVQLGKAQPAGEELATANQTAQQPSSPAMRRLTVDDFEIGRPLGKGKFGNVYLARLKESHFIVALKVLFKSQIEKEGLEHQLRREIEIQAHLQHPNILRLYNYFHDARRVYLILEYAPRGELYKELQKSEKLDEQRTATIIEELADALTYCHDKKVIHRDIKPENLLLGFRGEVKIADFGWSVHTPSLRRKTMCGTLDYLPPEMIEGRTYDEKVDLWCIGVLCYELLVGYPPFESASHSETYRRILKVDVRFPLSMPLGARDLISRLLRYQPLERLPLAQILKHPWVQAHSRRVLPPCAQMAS
T38 sequence (O95835 whole entry): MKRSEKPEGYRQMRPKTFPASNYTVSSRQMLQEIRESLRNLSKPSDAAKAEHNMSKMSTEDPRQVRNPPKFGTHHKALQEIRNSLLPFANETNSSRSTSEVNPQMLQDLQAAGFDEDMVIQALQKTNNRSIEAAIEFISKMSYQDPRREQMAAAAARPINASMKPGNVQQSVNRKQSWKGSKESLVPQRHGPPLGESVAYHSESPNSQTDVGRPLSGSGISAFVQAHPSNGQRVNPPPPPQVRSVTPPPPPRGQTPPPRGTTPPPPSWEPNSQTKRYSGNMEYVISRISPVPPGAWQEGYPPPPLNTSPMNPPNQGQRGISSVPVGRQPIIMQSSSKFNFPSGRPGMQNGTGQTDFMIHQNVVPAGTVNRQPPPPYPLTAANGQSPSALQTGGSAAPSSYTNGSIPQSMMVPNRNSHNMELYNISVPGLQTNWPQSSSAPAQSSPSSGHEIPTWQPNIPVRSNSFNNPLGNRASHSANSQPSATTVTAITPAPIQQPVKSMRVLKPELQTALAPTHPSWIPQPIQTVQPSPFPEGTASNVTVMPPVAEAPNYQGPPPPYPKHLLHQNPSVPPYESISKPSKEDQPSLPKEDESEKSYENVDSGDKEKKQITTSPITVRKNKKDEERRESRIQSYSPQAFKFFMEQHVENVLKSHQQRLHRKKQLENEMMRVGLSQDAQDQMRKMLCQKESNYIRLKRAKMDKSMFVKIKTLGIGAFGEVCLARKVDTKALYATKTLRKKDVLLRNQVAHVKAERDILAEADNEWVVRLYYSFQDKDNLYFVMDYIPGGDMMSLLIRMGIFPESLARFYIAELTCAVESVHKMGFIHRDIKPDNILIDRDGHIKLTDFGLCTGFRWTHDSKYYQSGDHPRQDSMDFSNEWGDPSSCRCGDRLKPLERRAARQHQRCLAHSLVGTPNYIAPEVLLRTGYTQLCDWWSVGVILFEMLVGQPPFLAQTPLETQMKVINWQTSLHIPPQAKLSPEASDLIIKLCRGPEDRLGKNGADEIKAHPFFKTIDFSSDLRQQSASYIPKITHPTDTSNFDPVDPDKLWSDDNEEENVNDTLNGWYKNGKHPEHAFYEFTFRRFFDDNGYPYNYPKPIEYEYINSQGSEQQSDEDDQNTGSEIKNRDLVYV
T23 sequence (Q9BUB5 whole entry): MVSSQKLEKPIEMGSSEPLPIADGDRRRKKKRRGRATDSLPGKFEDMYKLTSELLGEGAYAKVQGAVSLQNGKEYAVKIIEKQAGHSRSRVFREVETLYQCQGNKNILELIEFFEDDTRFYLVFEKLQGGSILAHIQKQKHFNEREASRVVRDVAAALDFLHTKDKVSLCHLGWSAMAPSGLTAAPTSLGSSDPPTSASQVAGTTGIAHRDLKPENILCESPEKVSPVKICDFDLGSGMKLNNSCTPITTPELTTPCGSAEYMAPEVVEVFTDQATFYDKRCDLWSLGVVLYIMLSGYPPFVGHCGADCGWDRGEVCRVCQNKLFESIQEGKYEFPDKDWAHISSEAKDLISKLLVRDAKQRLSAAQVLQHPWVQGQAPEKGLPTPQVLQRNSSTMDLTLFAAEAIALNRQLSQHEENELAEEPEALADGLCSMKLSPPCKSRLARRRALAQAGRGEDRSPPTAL
T13 sequence (Q96RR4 whole entry): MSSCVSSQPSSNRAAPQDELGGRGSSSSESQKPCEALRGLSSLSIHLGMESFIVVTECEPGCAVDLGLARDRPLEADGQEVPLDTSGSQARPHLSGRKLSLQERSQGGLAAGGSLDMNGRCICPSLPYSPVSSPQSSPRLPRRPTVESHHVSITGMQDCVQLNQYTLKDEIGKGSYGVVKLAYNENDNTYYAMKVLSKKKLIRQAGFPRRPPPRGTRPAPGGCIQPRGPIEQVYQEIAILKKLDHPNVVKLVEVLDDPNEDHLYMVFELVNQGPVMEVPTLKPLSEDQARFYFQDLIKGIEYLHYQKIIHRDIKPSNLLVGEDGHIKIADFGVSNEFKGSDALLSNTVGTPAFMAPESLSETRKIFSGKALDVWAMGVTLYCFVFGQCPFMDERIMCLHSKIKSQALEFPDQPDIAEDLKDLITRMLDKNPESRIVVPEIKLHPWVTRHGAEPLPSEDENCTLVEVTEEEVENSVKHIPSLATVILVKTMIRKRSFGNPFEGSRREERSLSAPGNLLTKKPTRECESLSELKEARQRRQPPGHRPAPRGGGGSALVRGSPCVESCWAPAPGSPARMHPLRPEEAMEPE
T22 sequence (P30291 whole entry): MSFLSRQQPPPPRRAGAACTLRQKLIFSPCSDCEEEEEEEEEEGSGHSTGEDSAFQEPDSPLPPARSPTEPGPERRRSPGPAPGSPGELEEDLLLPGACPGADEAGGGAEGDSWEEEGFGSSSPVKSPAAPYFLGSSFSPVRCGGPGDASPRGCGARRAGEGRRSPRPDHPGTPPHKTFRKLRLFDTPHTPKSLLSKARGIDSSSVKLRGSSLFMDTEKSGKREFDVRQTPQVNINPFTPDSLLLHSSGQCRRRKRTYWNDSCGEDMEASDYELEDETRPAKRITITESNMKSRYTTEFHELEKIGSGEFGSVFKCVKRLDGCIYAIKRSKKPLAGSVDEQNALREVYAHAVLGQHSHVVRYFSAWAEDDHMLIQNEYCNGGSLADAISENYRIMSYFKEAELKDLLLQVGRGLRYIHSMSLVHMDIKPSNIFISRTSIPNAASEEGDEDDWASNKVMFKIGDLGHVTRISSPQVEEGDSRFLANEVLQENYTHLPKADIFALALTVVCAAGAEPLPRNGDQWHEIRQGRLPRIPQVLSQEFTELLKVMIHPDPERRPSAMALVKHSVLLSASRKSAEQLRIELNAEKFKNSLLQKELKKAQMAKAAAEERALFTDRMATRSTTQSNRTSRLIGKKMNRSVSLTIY
T5 sequence (Q96D53 whole entry): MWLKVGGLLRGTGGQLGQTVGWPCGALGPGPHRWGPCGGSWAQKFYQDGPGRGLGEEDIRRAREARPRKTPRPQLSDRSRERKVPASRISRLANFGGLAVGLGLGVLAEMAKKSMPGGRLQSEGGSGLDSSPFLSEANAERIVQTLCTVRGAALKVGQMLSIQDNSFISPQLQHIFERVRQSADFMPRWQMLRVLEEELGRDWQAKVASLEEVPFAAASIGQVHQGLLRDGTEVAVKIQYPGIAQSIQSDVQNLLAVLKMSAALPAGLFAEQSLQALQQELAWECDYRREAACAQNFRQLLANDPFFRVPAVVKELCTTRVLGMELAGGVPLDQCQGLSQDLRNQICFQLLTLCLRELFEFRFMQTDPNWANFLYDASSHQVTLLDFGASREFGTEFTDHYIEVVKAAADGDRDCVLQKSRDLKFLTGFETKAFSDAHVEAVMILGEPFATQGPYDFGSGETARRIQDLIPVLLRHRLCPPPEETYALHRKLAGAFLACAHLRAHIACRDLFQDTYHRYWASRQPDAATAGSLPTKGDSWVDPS

Row | SMILES | % binding compared to no inhibitor control (HIPK2) [%] | % binding compared to no inhibitor control (CDK3) [%] | % binding compared to no inhibitor control (MAK) [%] | % binding compared to no inhibitor control (SIK) [%] | % binding compared to no inhibitor control (ADCK4) [%] | % binding compared to no inhibitor control (DDR1) [%] | % binding compared to no inhibitor control (AURKC) [%] | % binding compared to no inhibitor control (CDK7) [%] | % binding compared to no inhibitor control (CAMK2D) [%] | % binding compared to no inhibitor control [1] [%] | % binding compared to no inhibitor control (YANK3) [%] | % binding compared to no inhibitor control (p38-gamma) [%] | % binding compared to no inhibitor control (CAMKK2) [%] | % binding compared to no inhibitor control (MAP3K2) [%] | % binding compared to no inhibitor control (PIP5K1A) [%] | % binding compared to no inhibitor control (NDR2) [%] | % binding compared to no inhibitor control (CSK) [%] | % binding compared to no inhibitor control (NEK7) [%] | % binding compared to no inhibitor control (MAP4K4) [%] | % binding compared to no inhibitor control (TNK1) [%] | also measured
1 | COc1ccc(-c2cc3nccn3c(Nc3ncccc3C(N)=O)n2)cc1OC.Cl.Cl [BAY61-3606, 2-[7-(3,4-dimethoxyphenyl)-imidazo [1,2-c]pyrimidin-5-ylamino] nicotinamide dihydrochloride, reference compound] | 9 | 89 | 68 | 80 | 9.9 | 99 | 92 | 33 | 72 | 90 | 53 | 47 | 51 | 55 | 64 | 68 | 68 | 60 | 94 | 82 | % inhibition ATP binding (HIPK2; HIPK2, KINOMEscan, 1 μM): 91%; % binding compared to no inhibitor control (BMPR1A): 79%; % binding compared to no inhibitor control (WEE1): 89%; % binding compared to no inhibitor control (MKNK1): 52%; % binding compared to no inhibitor control (CHEK2): 100%; % binding compared to no inhibitor control (DCAMKL1): 93%; % binding compared to no inhibitor control (DMPK2): 86%; % binding compared to no inhibitor control (FRK): 100%; % binding compared to no inhibitor control (PFTK1): 100%; % binding compared to no inhibitor control [2]: 89%; % binding compared to no inhibitor control (FGFR2): 100%; % binding compared to no inhibitor control (SRMS): 65%; % binding compared to no inhibitor control (OSR1): 100%; % binding compared to no inhibitor control (BRSK2): 84%; % binding compared to no inhibitor control (PAK4): 85%; % binding compared to no inhibitor control (PKAC-alpha): 90%; % binding compared to no inhibitor control (ERK3): 73%; % binding compared to no inhibitor control (BRSK1): 82%; % binding compared to no inhibitor control (LATS1): 100%; % binding compared to no inhibitor control (HCK): 88%
2 | COc1ccccc1Nc1nc(-c2ccc(OC)c(OC)c2)cc2nccn12 [BAY derivative 6] | 100 | 94 | 100 | 100 | 69 | 100 | 100 | 100 | 100 | 13 | 100 | 56 | 100 | 88 | 86 | 93 | 99 | 100 | 86 | 56 | % binding compared to no inhibitor control (BMPR1A): 100%; % binding compared to no inhibitor control (WEE1): 100%; % binding compared to no inhibitor control (MKNK1): 72%; % binding compared to no inhibitor control (CHEK2): 97%; % binding compared to no inhibitor control (DCAMKL1): 87%; % binding compared to no inhibitor control (DMPK2): 88%; % binding compared to no inhibitor control (FRK): 84%; % binding compared to no inhibitor control (PFTK1): 100%; % binding compared to no inhibitor control [2]: 97%; % binding compared to no inhibitor control (FGFR2): 83%; % binding compared to no inhibitor control (SRMS): 97%; % binding compared to no inhibitor control (OSR1): 100%; % binding compared to no inhibitor control (BRSK2): 100%; % binding compared to no inhibitor control (PAK4): 90%; % binding compared to no inhibitor control (PKAC-alpha): 72%; % binding compared to no inhibitor control (ERK3): 88%; % binding compared to no inhibitor control (BRSK1): 100%; % binding compared to no inhibitor control (LATS1): 100%; % binding compared to no inhibitor control (HCK): 83%
